Patent publication US20180289702A1, “LPA LEVEL REDUCTION FOR TREATING CENTRAL NERVOUS SYSTEM DISORDERS” (priority 2015, published 2018)

How the values were obtained:
[1] = PF8380 concentration in serum and cerebrospinal fluid by mass spectrometry; type: in vivo, mice
Protocol: (§1) Animals were treated using the in-vivo potent autotaxin inhibitor PF 8380 (Gierse et al., 2010). Animals received a single i.p. injection 3 hours prior to PPI.
Nanoscale UPLC separation was performed with a nanoAcquity UPLC system (Waters Corporation) equipped with a PepSwift Monolithic PS-DVB, 200 μm×5 cm analytical column (Thermo Scientific Dionex). For analysis, samples (300 nL) were directly injected onto the analytical column. Mobile phase A was water containing 0.1% v/v formic acid, while mobile phase B was ACN containing 0.1% v/v formic acid. Samples were separated at 55° C. with a gradient of 1-35% mobile phase B over 20 min at a flow rate of 800 nL/min. The column was rinsed for 7 min with 99% mobile phase B, followed by a re-equilibration step at initial conditions resulting in total analysis times of 40 min.
Mass spectrometric analysis of PF-8380 was performed in positive mode ESI using a Synapt G2-S HDMS mass spectrometer (Waters Corporation). Samples were analyzed using a targeted MS-method isolating the singly charged precursor of PF-8380. […] All samples and references were analyzed in three technical replicates.
Raw data were analyzed manually using MassLynx V4.1 Software (Waters Corporation). Extracted ion chromatograms of fragment ions at m/z 301 were used for quantitative analysis calculating the area under the curve. […]

[2] = test system: LPA species (LPA 16:0, 18:1, 18:2); assay: LPA species in cerebrospinal fluid (LC-ESI-MS/MS); type: in vivo; conditions: PRG-1 Ko mice, intraperitoneal injection
Protocol: LPA analysis was performed with liquid chromatography-electrospray ionization-tandem mass spectrometry (LC-ESI-MS/MS). The LC-MS/MS system consisted in a hybrid triple quadrupole-ion trap QTrap 5500 mass spectrometer (AB Sciex, Germany) equipped with a Turbo-V-source operating in negative ESI mode, an Agilent 1200 binary HPLC pump, column oven (40° C.) and degasser and an HTC Pal autosampler.
Two cycles of […] extraction of LPAs were done with 1-buthanol after adding the internal standard LPA17:0 to the sample (50 μl sample, 20 μl internal standard in 500 μl 1-butanol). The combined organic phases were dried under a gentle stream of nitrogen at 45° C. and subsequently re-dissolved in 200 μl methanol.
For the chromatographic separation a C18 column (Mercury 20×2 mm, 3 μm, 100 Å) and precolumn were used (Phenomenex, Germany). A linear gradient was employed at 400 μl/min. Mobile phase A was water with ammonium formate 50 mM and formic acid (100:0.2, v/v) and mobile phase B acetonitrile/formic acid (100:0.1, v/v), total run time 7 min, injection volume 20 μl. The mass spectrometer operated in the negative ion mode with an electrospray voltage of −4500 V at 350° C. Multiple reaction monitoring (MRM) was used for quantification. […] Quantitation was performed with Analyst Software V1.5 (Applied Biosystems) using the internal standard method with 1/concentration^2 weighting. […]

PRG-1+/− mice [3] = assay: pre-pulse inhibition (PPI) of the startle response in PRG-1+/− mice; type: in vivo; conditions: i.p. 3 hours prior to PPI, level not different to wt
Protocol: as §1

PRG-1R346T+/− animals = assay: PPI in PRG-1R346T+/− knock-in mice; type: in vivo; conditions: monoallelic PRG-1R346T+/− animals
Protocol: In order to investigate whether the described human mutation indeed results in a endophenotype for psychiatric disorders, the inventors produced an knock-in mouse line where the PRG-1^R346T mutated gene was introduced in place of the PRG-1 wild-type gene. Since only monoallelic PRG-1^R346T mutation carriers were detected, PRG-1^R346T+/− animals were used for the study, which correspond to the human in-vivo situation.
Animals received a single i.p. injection 3 hours prior to PPI.

[4] = test system: animal model of schizophrenia induced by ketamine; assay: ketamine-induced animal model of schizophrenia: PPI and open field hyperactivity; type: in vivo, mice
Description: In order to correlate these electrophysiological effects with behavior in these mice, the inventors first analyzed PPI after ketamine application. […] In sum, ATX-inhibition has the general potential to normalize E/I balance in psychiatric disorders associated with increased glutamatergic input and opens a new therapeutic avenue towards treatment of psychiatric disorders.

PRG-1+/− mice [5] = assay: MCAO stroke model in PRG-1+/− mice; type: in vivo
Protocol: For stroke experiments, mice were anesthetized and occlusion of the medial cerebral artery (MCAO) was performed for 30 min (assessment after 3 days) or for 1 h (assessment after 1day) by introduction of an intraluminal filament as reported (Ploen et al., 2014). […] After 1 h or after 30 min of MCAO, respectively, mice recovered and were perfused 24 hours (1 h MCAO) or 72 hours (30 min MCAO) later. Brains were extracted, snap frozen and cryosectioned using a cryotome. Mounted brain slices were Nissl-Stained which allowed to measure infarct area and to calculate total infarct volume per animal. All measurements were performed in a blinded fashion. Data was assessed for normality and statistical analysis was performed using an one-tailed t-test.

PRG-1 Ko mice = assay: mEPSC recordings with PF8380, PRG-1 Ko; type: cell-based; conditions: 1 μM
[6] = test system: hippocampal slices from PRG-1 KO mice; assay: evoked EPSCs in hippocampal slices; type: cell-based
mice [7] = assay: food intake after overnight food deprivation; type: in vivo
Description: Metabolic alterations like overnight fasting induce changes in LPA subtype composition (Ino M et al. 2012). This correlates with the increased activity of ATX after overnight food deprivation, the availability of the ATX substrate LPC but also with the substrate preferences of ATX for unsaturated LPCs. In order to understand the cortical effects of altered LPA-composition upon fasting, the inventors analyzed food consumption after overnight food deprivation in control and PF8380-treated animals. […] However, overnight food deprivation was not related to hyperlocomotion since travelled distance in an open field setting was not different between control, overnight food deprived and PF-treated overnight food deprived animals (FIG. 19B).

mice [8] = assay: open field locomotion of food deprived animals; type: in vivo; conditions: OF 10 min; controls, food deprived controls and food deprived animals treated with PF8380

- concentrations in the serum ([1]; in-vivo application 30 mg/KG/BW): robust concentrations
- concentration at 3 h ([1]; mouse, cerebrospinal fluid, ip, 30 mg/KG/BW, single i.p. injection, 3 hours after injection): ≤ 420 nM
SMILES: O=C(CCN1CCN(C(=O)OCc2cc(Cl)cc(Cl)c2)CC1)c1ccc2[nH]c(=O)oc2c1 [PF8380, 4-[3-(2,3-Dihydro-2-oxo-6-benzoxazolyl)-3-oxopropyl]-1-piperazinecarboxylic acid (3,5-dichlorophenyl)methyl ester]
- main LPA species (LPA 16:0, 18:1, 18:2) in CSF [2]: significant decrease
- PPI-deficit (PRG-1+/− mice [3]): significantly rescued
- Pre Pulse Inhibition (PPI) (PRG-1R346T+/− animals): rescue the decreased PPI to WT values
- PPI [4]: rescued to WT values
- hyperactivity following ketamine application in an open field setting [4]: significantly reduced
- infarct volume (PRG-1+/− mice [5]; 30 min MCAO measured 3 d after stroke): significantly decreased
- outcome in modified Neurologic Severity Score (PRG-1+/− mice [5]; 3 h, 24 h, 48 h and 72 h post MCAO): significantly improves
- long-term sensorimotor dysfunction, corner test (PRG-1+/− mice [5]; 24 h up to 72 h post MCAO): significantly improved
- mEPSC amplitude (PRG-1 Ko mice): not influencing
- mEPSC frequency (PRG-1 Ko mice): significantly reduced
- PPR [6]: increased
- evoked potentials (eEPSC, first stimulus) [6]: significantly affected
- second stimulus applied at an interval of 50 ms [6]: did not alter
- food intake (mice [7]; control mice (not food deprived)): does not alter
- food intake (mice [7]; overnight food deprived animals, within 60 min): significantly decreased
- locomotion in the open field, total distance (mice [8]): did not display significant differences
